Legend:
[1] = molecular target: T1, Orexin/Hypocretin receptor type 1 (Homo sapiens) (UniProt O43613); test: Antagonist activity at human OX1 receptor; conditions: filed as antagonist
T1 sequence (whole entry): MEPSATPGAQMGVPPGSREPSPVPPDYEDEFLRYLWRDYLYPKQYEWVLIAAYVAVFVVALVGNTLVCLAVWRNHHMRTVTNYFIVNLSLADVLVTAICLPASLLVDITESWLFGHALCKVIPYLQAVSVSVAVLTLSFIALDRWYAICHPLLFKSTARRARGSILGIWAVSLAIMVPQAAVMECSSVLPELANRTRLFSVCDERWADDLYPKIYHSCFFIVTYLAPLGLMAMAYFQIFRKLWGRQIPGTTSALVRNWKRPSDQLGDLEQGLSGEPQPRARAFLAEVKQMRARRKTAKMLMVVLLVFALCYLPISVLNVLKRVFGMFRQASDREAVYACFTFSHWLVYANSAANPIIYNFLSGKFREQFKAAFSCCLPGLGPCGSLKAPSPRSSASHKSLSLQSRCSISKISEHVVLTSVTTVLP

[2] = molecular target: T2, Orexin/Hypocretin receptor type 1 (Homo sapiens, UniProt O43613); test: Inhibition of human orexin 1
T2 sequence (O43613 whole entry): T1 sequence (whole entry)

Orexin receptor type 2 = molecular target: T3, Orexin receptor type 2 (Homo sapiens, UniProt O43614); test: Inhibition of human orexin 2
T3 sequence (O43614 whole entry): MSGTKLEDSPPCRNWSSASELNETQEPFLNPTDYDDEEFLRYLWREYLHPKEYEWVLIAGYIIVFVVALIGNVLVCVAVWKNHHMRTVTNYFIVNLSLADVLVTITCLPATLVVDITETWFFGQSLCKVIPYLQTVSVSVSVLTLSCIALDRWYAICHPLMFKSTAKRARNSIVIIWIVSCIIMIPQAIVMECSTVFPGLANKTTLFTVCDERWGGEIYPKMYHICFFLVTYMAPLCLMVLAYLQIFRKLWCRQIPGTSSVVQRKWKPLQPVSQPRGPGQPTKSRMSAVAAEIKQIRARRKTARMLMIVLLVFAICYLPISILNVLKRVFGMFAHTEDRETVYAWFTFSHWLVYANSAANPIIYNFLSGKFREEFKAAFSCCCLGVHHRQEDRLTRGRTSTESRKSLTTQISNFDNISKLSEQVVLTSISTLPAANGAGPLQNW

[3] = Displacement of [125I]-Ang II from rat liver membrane AT1R incubated for 3 hrs; type: cell membranes
[4] = Displacement of [125I]-Ang II from rabbit uterine membrane AT2R incubated for 3 hrs in presence of DuP 753; type: cell membranes, Oryctolagus cuniculus, Uterus

pKb [1]	Ki [2] [nM]	Ki (Orexin receptor type 2) [nM]	IC50 [3] [µM]	IC50 [4] [nM]	Compound
8	–	–	–	–	Cc1ccc(-c2cnccn2)c(C(=O)N2CCC3(CC3)C[C@H]2CNc2cccc(C(F)(F)F)n2)c1
–	79.4	1580	–	–	Cc1ccc(-c2ncccn2)c(C(=O)N2C[C@@H]3C[C@@H]3C[C@H]2CNc2nnc(C(F)(F)F)s2)n1
–	–	–	> 10	0.58	COc1ccc2c(c1OCc1ccccc1)C[C@@H](C(=O)O)N(C(=O)C(c1ccccc1)c1ccccc1)C2 [OLODANRIGAN]
–	–	–	> 10	6.9	Cc1cc(Cn2cnc3c2C[C@@H](C(=O)O)N(C(=O)C(c2ccccc2)c2ccccc2)C3)ccc1N(C)C

— ChEMBL document CHEMBL5230126, “Cyclic tailor-made amino acids in the design of modern pharmaceuticals” (Eur J Med Chem, 2020)
